Here are results for 8 compounds from patent publication US20110281794A1, “C[…]-[…] A[…] ADM[…] A BRAIN-DEAD, HEART-BEATING POTENTIAL ORGAN DONOR” (VIVOLINE MEDICAL AB, priority 2008, published 2011).

Data set [1] has as its system brain-dead, heart-beating cadaver of a pig. Kind of data set: Blood pressure and organ maintenance in brain-dead, heart-beating pig under intravenous infusion. It is filed as in vivo. On the procedure:
The following ingredients: 1 mg (1 ml) adrenaline, 1 mg (1 ml) nor-adrenaline, 0.3 mg (3 ml) T3, 300 mg (3 ml) cortisone, […] (9 ml) Minirin and 1 mg (3 ml) cocaine were dissolved in 50 ml physiological sodium chloride solution.
For reducing the risk of diabetes insipidus, a bolus of […] Minirin was given at the start of the treatment.
The inventor has performed more than 20 experiments with pigs and using cocaine in combination with adrenaline and nor-adrenaline.
FIG. 4 is a diagram over blood pressure during an experiment similar to Experiment 1.

Another data set has as its system alfa-1. In words: Potency as replacement of nor-adrenaline (alfa-1-agonist). From the text: In some embodiments, the adrenaline and/or nor-adrenaline may be partly or entirely replaced by an equivalent substance. For example, phenylephrine is an alfa-1-agonist and may replace nor-adrenaline.
The conditions of data set [2]: in vivo; cited from earlier work.
The target in data set [3] is NET (nor-epinephrine transporter) (Homo sapiens, UniProt P23975). The settings on record: cited from earlier work.
For data set [4] the following is noted: cited from earlier work.

Chain of NET (nor-epinephrine transporter) (P23975 whole entry, species assumed): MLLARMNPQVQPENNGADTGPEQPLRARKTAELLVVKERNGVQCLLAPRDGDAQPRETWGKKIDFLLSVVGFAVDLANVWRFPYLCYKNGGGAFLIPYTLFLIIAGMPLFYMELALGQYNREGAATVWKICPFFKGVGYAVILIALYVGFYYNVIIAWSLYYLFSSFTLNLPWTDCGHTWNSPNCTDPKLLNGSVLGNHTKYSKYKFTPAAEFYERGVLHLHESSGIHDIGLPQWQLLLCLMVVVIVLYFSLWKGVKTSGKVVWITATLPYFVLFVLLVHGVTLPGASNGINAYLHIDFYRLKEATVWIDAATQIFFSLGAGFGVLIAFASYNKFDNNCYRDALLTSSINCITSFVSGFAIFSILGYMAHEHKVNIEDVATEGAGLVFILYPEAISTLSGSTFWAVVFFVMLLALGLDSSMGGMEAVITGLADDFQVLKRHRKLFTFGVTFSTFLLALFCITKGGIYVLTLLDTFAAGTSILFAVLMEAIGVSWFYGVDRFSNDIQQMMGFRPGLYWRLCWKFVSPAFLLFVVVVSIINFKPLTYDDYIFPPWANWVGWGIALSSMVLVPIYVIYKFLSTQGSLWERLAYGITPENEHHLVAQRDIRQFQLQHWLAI

For the compound `COC(=O)[C@H]1[C@@H](OC(=O)c2ccccc2)C[C@@H]2CC[C@H]1N2C` [cocaine, benzoylmethyl ecgonine], the “potentiation of the effect of blood circulating nor-adrenaline (vasoconstriction)” value in data set [1] (added together with nor-adrenaline, compared with cocaine) is given as “much lower levels of nor-adrenaline”. In data set [1] (more than 20 experiments with pigs, in combination with adrenaline and nor-adrenaline, over 24 hours), the “blood pressure maintained at a constant level” value is listed as 70 mmHg.

Regarding `CC(N)Cc1ccccc1` (stereo not drawn) [amphetamine, alpha-methylphenethylamine], in data set [1] (added at 29.5 hours to infusion solution of Experiment 1 without cocaine, constant until 36 hours), the “increase of mean arterial pressure” value is listed as “about 15 mmHg”.

`CNC[C@H](O)c1cccc(O)c1` [phenylephrine]: in the data set with alfa-1, the “potency relative to nor-adrenaline (times less potent)” value is given as “about 5 times”.

Take `CCN(CC)CC(=O)Nc1c(C)cccc1C` [Lidocaine]: the “effect of infusion on blood pressure” value in data set [2] was “vasodilatation and a lowering of the blood pressure”.

As to `CNCCCC1c2ccccc2C=Cc2ccccc21` [Protriptylin], in data set [3], the “potency among NET inhibitors” value is listed as “highest”.

Turning to `NC(=O)CC[C@@H]1NC(=O)[C@H](Cc2ccccc2)NC(=O)[C@H](Cc2ccc(O)cc2)NC(=O)[C@@H](N)CSSC[C@@H](C(=O)N2CCC[C@H]2C(=O)N[C@@H](CCCN=C(N)N)C(=O)NCC(N)=O)NC(=O)[C@H](CC(N)=O)NC1=O` [ADH], the half-life-time result in data set [4] is “about 15 minutes”.

For the compound `CNCCCN1c2ccccc2CCc2ccc(Cl)cc21` [Norclomipramine], in data set [3], the “potency among NET inhibitors” value is “highest”.

Take `CNCCCN1c2ccccc2CCc2ccccc21` [desipramine]: the half-life time in data set [4] is 30 h. Further, in data set [1] (Experiment 2, infusion 1.7 to 3.2 ml/hour with adrenaline and nor-adrenaline, from a mean pressure of about 40 mmHg), the “mean pressure reached on infusion” value is recorded as 80 mmHg. For the same compound, the “blood pressure after infusion rate was decreased” value in data set [1] (Experiment 2, infusion rate decreased to 2.5 and 1.7 ml/hour, never decreased further) was “about 60 mmHg”.
